Test results as given in patent US6569843B1, “Steroidal sapogenins for the control of coccidiosis in animals” (priority 1999, dated 2003).
Values joined by “and” are separate entries in the source; they are usually repeats but may differ in a detail not shown here. Identical values can stand only once.

What was measured:
Type in all cases: in vivo
[1] = system: mixed culture of E. acervulina, E. maxima and E. tenella; test: 14 day coccidial challenge study, steroidal sapogenin and antibiotic compatibility in chicks (Example 5); details: SS at 3.3 ppm where included, antibiotic doses not given; for Lesion Scores, Cecal / Lesion Scores, Middle / Lesion Scores, Upper: day 14
[2] = system: mixture of E. acervulina, E. maxima and E. tenella; test: 8 day coccidial challenge study in broiler chicks, mortality, weight gain, feed efficiency (Example 4)
E. tenella [3] = test: 8 day coccidial challenge study, cecal lesion score (Example 4); details: day 8
E. acervulina [4] = test: 8 day coccidial challenge study, upper lesion score (Example 4); details: day 8
E. maxima [5] = test: 8 day coccidial challenge study, middle lesion score (Example 4); details: day 8
[6] = system: mixture of E. acervulina, E. maxima and E. tenella; test: 13 day coccidial challenge study in broiler chicks, weight and feed conversion (Example 3)
Excerpt: (§1) Birds were fed a standard corn soybean meal diet and water ad libitum. Birds were placed in 4 foot by 5 foot pens at the rate of 50 birds per pen. On day 6 all birds, except the negative control, were orally challenged with an inoculum comprised of a mixture of E. acervulina, E. maxima and E. tenella. Since each of these three specie of Eimeria produce intestinal lesions in distinctly different regions of the intestinal their effects can be partitioned when scoring the birds. On day 13 all birds were sacrificed by cervical dislocation and the intestines scored for coccidial lesions by the standard Johnson and Reid method.

E. tenella [7] = test: 13 day coccidial challenge study, cecal lesion score (Example 3); details: day 13
Excerpt: as §1

E. maxima [8] = test: 13 day coccidial challenge study, middle intestinal lesion score (Example 3); details: day 13
Excerpt: as §1

E. acervulina [9] = test: 13 day coccidial challenge study, upper intestinal lesion score (Example 3); details: day 13
Excerpt: as §1

Q: What does the source list for Virginiamycin?
A: Feed/Gain [1]: 1.891; Weight, gm [1]: 256.3 gm; Lesion Scores, Cecal [1]: 1.17; Lesion Scores, Middle [1]: 1.58; Lesion Scores, Upper [1]: 1.17

Q: For Bacitracin Zinc, which Feed/Gain [1] is on record?
A: The Feed/Gain was 1.833.

Q: And the “Weight, gm” value [1]?
A: Its value is 259.7 gm.

Q: And the “Lesion Scores, Cecal” value [1]?
A: Its value is 1.50.

Q: What about the “Lesion Scores, Middle” value [1] of the same compound?
A: The value was 2.08.

Q: And the “Lesion Scores, Upper” value [1]?
A: Its value is 1.50.

Q: What does the source list for `CO[C@@H]1[C@@H](OC)[C@H](C)[C@@](O)(CC(=O)O)O[C@H]1[C@H](C)[C@H]1O[C@@]2(CC[C@@](C)([C@H]3CC[C@@](C)([C@@H]4O[C@@H]([C@H]5O[C@](C)(O)[C@H](C)C[C@@H]5C)C[C@@H]4O[C@@H]4C[C@H](OC)[C@@H](OC)[C@H](C)O4)O3)O2)C[C@H](O)[C@H]1C` [Maduramicin]?
A: Feed/Gain ([2]; 5 ppm, two different sources): 1.8503 cd and 1.8463 cd; Mortality, % ([2]; 5 ppm, two different sources): 6.67 a % and 0 a %; Weight Gain, gm ([2]; 5 ppm, two different sources): 266.67 d gm and 269.33 d gm; Lesion Scores, Cecal, E. tenella (E. tenella [3]; 5 ppm, two different sources): 2.6000 bc and 2.3333 bc; Lesion Scores, Upper, E. acervulina (E. acervulina [4]; 5 ppm, two different sources): 2.1000 b and 2.3667 b; Lesion Scores, Middle, E. maxima (E. maxima [5]; 5 ppm, two different sources): 2.2667 b and 2.3000 b

Q: Which Feed/Gain ([6]; 100 g/ton) does the source give for `CC[C@@]1([C@@H]2O[C@@H]([C@H]3O[C@@](O)(CO)[C@H](C)C[C@@H]3C)C[C@@H]2C)CC[C@H]([C@]2(C)CC[C@]3(C[C@H](O)[C@@H](C)[C@@H]([C@@H](C)[C@@H](OC)[C@H](C)C(=O)O)O3)O2)O1` [Monensin] here?
A: Its Feed/Gain is 1.843.

Q: And the “Weight, gm (average bird weight)” value ([6]; 100 g/ton)?
A: Its value is 233.0 gm.

Q: What about the “Average intestinal lesion score, Cecal, tenella” value (E. tenella [7]; 100 g/ton) of the same compound?
A: The value was 1.64.

Q: What about the “Average intestinal lesion score, Middle, maxima” value (E. maxima [8]; 100 g/ton) of the same compound?
A: The value was 1.58.

Q: What about the Feed/Gain ([2]; 90 gm/ton) of the same compound?
A: Its Feed/Gain is 1.9033 cd.

Q: What about the “Mortality, %” value ([2]; 90 gm/ton) of the same compound?
A: Its value is 3.33 a %.

Q: What about the “Weight Gain, gm” value ([2]; 90 gm/ton) of the same compound?
A: The value was 258.67 d gm.

Q: What about the “Lesion Scores, Cecal, E. tenella” value (E. tenella [3]; 90 gm/ton) of the same compound?
A: The value was 2.9667 bc.

Q: And the “Average intestinal lesion score, Upper, acervulina” value (E. acervulina [9]; 100 g/ton)?
A: Its value is 1.40.

Q: What about the “Lesion Scores, Upper, E. acervulina” value (E. acervulina [4]; 90 gm/ton) of the same compound?
A: Its value is 1.9667 b.

Q: What about the “Lesion Scores, Middle, E. maxima” value (E. maxima [5]; 90 gm/ton) of the same compound?
A: The value was 2.4333 bc.

Q: `CC[C@@H](C(=O)[C@@H](C)[C@@H](O)[C@H](C)[C@@H]1O[C@@H]([C@@H](CC)C(=O)O)CC[C@@H]1C)[C@H]1O[C@]2(C=C[C@@H](O)[C@]3(CC[C@@](C)([C@H]4CC[C@](O)(CC)[C@H](C)O4)O3)O2)[C@H](C)C[C@@H]1C` [Salinomycin] was tested. Which Feed/Gain ([6]; 60 g/ton) did it give?
A: Its Feed/Gain is 1.624.

Q: And the “Weight, gm (average bird weight)” value ([6]; 60 g/ton)?
A: Its value is 246.3 gm.

Q: And the “Average intestinal lesion score, Cecal, tenella” value (E. tenella [7]; 60 g/ton)?
A: Its value is 0.68.

Q: And the “Average intestinal lesion score, Middle, maxima” value (E. maxima [8]; 60 g/ton)?
A: Its value is 1.22.

Q: And the Feed/Gain ([2]; 60 gm/ton)?
A: Its Feed/Gain is 1.8473 cd.

Q: What about the “Mortality, %” value ([2]; 60 gm/ton) of the same compound?
A: The value was 6.67 a %.

Q: What about the “Weight Gain, gm” value ([2]; 60 gm/ton) of the same compound?
A: Its value is 269.67 d gm.

Q: And the “Lesion Scores, Cecal, E. tenella” value (E. tenella [3]; 60 gm/ton)?
A: Its value is 2.9000 bc.

Q: And the “Average intestinal lesion score, Upper, acervulina” value (E. acervulina [9]; 60 g/ton)?
A: The value was 0.76.

Q: What about the “Lesion Scores, Upper, E. acervulina” value (E. acervulina [4]; 60 gm/ton) of the same compound?
A: Its value is 2.1333 b.

Q: What about the “Lesion Scores, Middle, E. maxima” value (E. maxima [5]; 60 gm/ton) of the same compound?
A: Its value is 2.9000 bc.
